In patent publication US7659296B2, “Vitamin D receptor modulators” (Eli Lilly and Company, priority 2004, dated 2010):

Key:
Type in all cases: cell-based
RXR-VDR heterodimer = target: T1, RXR-VDR heterodimer (Homo sapiens, UniProt P11473); assay: RXR-VDR heterodimerization (SaOS-2 cells) test; conditions: Gal-4-RXR-DEF and VP16-VDR-LBD, luciferase reporter
T1 construct: add the Gal-4-RXR-DEF and VP16-VDR-LBD; expressed in transfected cells; host or cells: SaOS-2 cells
T1 sequence (P11473 127-423 limits assumed): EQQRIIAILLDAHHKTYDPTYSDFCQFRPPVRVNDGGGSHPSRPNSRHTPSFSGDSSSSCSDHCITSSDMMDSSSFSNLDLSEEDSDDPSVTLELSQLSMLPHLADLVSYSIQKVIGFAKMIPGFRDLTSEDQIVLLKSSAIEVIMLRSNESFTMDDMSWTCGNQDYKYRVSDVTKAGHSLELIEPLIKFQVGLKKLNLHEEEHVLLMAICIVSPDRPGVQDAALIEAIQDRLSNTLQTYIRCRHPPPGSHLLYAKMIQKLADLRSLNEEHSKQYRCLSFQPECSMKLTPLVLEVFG
T1 sequence (P19793 201-462 partner limits assumed): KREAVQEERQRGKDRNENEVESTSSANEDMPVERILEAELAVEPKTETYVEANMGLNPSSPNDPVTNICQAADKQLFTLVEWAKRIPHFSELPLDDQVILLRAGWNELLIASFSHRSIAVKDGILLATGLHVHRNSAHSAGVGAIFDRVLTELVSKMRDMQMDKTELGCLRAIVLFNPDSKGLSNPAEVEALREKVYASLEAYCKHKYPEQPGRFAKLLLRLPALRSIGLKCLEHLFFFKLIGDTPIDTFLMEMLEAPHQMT
Procedure: 1. The RXR-VDR heterodimerAssay:
This assay provides the VDR activity of a test compound. It is desirable to have low EC50 values for a compound in this assay. […] Desired assay results are EC50 values less than or equal to 600 nM. Preferred assay results are less than 250 nM, and most preferably less than 150 nM.
(1) Materials and Method for RXR-VDR Heterodimerization Assay Transfection Method: Reagents: FuGENE 6 Transfection Reagent (Roche Cat # 1 814 443); Growth Media: D-MEM High Glucose (Gibco BRL Cat # 11054-020), 10% heat inactivated FBS (Gibco BRL Cat # 10092-147), 1% antibiotic-antimycotic (Ab-Am); (Gibco BRL Cat # 15240-062). Cells: Grow SaOS-2 cells in T-150 cm^2 culture flasks in growth media keeping the density at 5-6×10^5 cells/ml. Passage cells 1:3 twice a week. Add Trypsin EDTA (Gibco BRL Cat # 25300-020) and incubate. Resuspend cells in plating media and transfer into growth media. Wash Media: HBSS Low Glucose Without Phenol Red (Gibco BRL Cat # 14175-095), 1% Ab-Am. Plating Media: D-MEM Low Glucose Without Phenol Red (Gibco BRL Cat # 11054-020), 1% Ab-Am; D-MEM; 10% Stripped FBS (Hyclone Cat# SH30068.03 Lot # AHM9371). Transfection/Treatment Media: D-MEM Low Glucose Without Phenol Red only; T-150 cm^2 culture flask: Use Corning Coastar T-150 cm^2 culture flask (Cat #430825) to grow the cells. Luciferase Assay Reagent: Use Steady-Glo Luciferase Reagent from Promega (Cat # E2550) Consists of: E2533 Assay Substrate, lypholized product and E2543 Assay Buffer. Thaw at room temperature and store. Cell Harvesting/Count: Aspirate media from culture flask, rinse cells with HBSS and aspirate. Add trypsin and incubate. When cells appear detached, resuspend cells in growth media. Transfer into a new flask with fresh growth media for passaging the cells. Plate 96 well plates and two extra plates. Mix the cell suspension using pipette. To count the cells using a Hematocytometer. Plate seeding: Use plating media 10% Stripped FBS in D-MEM Low Glucose, without Phenol Red, 1% Ab-Am. Plate 14 plates @ 165 μl/well. In sterile flask add cell suspension to plating media and mix. Add cells/well. Place the cells in the incubator. Cells should be about 75% confluent prior to transfection. DAY 2: Transfection: Step 1, DNA and Media: Add plain DMEM media to tubes for mixing the DNA; add the Reporter gene pFR-LUC; and add the Gal-4-RXR-DEF and VP16-VDR-LBD. Step 2, FuGENE and Media: Prepare plain DMEM media in a tubes for mixing FuGENE, add FuGENE 6 Transfection Reagent, and incubate. Step 3, FuGENE, DNA and Media Complex: Add FuGENE Media complex from step 2 to DNA Media complex from step 1 and incubate. Step 4, FuGENE, DNA and Media Complex to 96 well plate: Add FuGENE-DNA-Media complex from step 3 to each plate. Incubate. Day 3: Dosing: Treatment preparation. Allow for transfection time. Make a stock solution of the compounds in DMSO and vortex until all the compounds have been dissolved. Further dilute in D-MEM (Low Glucose—without Phenol Red) Add compounds in quadruplicate to give desired final volume then incubate. Day 4: Luciferase Assay: Read the plates after drug treatment. Remove part of media from all the wells and leave remainder. Add Steady-Glo Luciferase Reagent mixture/wells and incubate. Count each well using a Luminescence counter, Top Count NXT by Packard preferably set a delay between plates to reduce the background.

[1] = system: KERtr cells (Human skin keratinocyte); assay: Keratinocyte Proliferation Assay; conditions: BrdU incorporation, 72 h, read-out: Kera. Prolif. IC50
Procedure: The Keratinocyte Proliferation Assay
This Assay is indicative for the treatment of psoriasis. An acceptable test result is IC50 value of less than or equal to 300 nM. Preferred assay results are IC50 values of less than 100 nM.
KERtr cells (Human skin keratinocyte) are transformed with a retrovirus vector, obtained from ATCC, then are plated in 96-well flat-bottomed plates (3000 cells/well) in 100 μl keratinocyte serum free medium supplemented with bovine pituitary extract in the absence of EGF (Life Technologies, Rockville, Md.) and are incubated at 37° C. for two days. The cells are treated with various concentrations of VDR ligands (ten-fold serial dilution from 10,000 nM to 0.1 nM in triplicate), dissolved in 100 μl keratinocyte serum free medium supplemented with bovine pituitary extract in the absence of EGF and are incubated at 37° C. for 72 h. BrdU (5-bromo-2′-deoxyuridine) incorporation is analyzed as a measure of DNA replication (Cell proliferation ELISA kit, Roche Diagnostics, Indianapolis, Ind.) and absorbance is measured at 405 nm. Potency values (IC50) values were determined as the concentration (nM) of compound that elicited a half-maximal response.

rat osteocalcin promoter = assay: OCN (osteocalcin) Promoter Assay; conditions: RG-15 (ROS17/2.8) cells, luciferase reporter, 48 h treatment
Procedure: The OCN (osteocalcin) Promoter Assay
The OCN Promoter Assay is an indicator and marker for osteoporosis. Desired assay results are EC50 less than or equal to 325 nM. Preferred assay results are less than 50 nM.
The activation of osteocalcin by VDR ligands is evaluated in a rat osteoblast-like cell line RG-15 (ROS17/2.8) stably expressing rat osteocalcin promoter fused with luciferase reporter gene. The stable cell lines are established as reported before (Activation of Osteocalcin Transcription involves interaction of protein kinase A- and Protein kinase C-dependent pathways. Boguslawski, G., Hale, L. V., Yu, X.-P., Miles, R. R., Onyia, J. E., Santerre R. F., Chandrasekhar, S. J. Biol. Chem. 275, 999-1006, 2000). Confluent RG-15 cells maintained in DMEM/F-12 medium (3:1) containing 5% FBS, 300 μg/ml G418 and at 37° C. under 5% CO2/95% air atmosphere are trypsinized (0.25% trypsin) and plated into white opaque 96-well cell culture plates (25000 cells/well). After 24 h, cells (in DMEM/F-12 medium+2% FBS) are treated with various concentrations of compounds, dissolved in DMSO. The final DMSO concentration remains at 0.01% (v/v). After 48 h treatment, the medium is removed, cells are lysed with 50 μl of lysis buffer (From Luciferase reporter assay system, Roche Diagnostics, Indianapolis, Ind.) and then assayed for luciferase activity using the Luciferase Reporter Gene Assay kit from Boehringer Mannheim as per manufacturer's specifications.

SMILES | EC50 (RXR-VDR heterodimer) | IC50 [1] | EC50 (rat osteocalcin promoter)
CCC(CC)(c1ccc(OCC(=O)C(C)(C)C)c(C)c1)c1nc2cc(C(N)=O)ccc2o1 [Ex 7, 2-{1-[4-(3,3-Dimethyl-2-oxo-butoxy)-3-methyl-phenyl]-1-ethyl-propyl}-benzooxazole-5-carboxylic acid amide] | 177 nM | > 1000 nM | –
CCC(CC)(c1ccc(OCC(=O)C(C)(C)C)c(C)c1)c1nc2cc(C(=O)N(C)C)ccc2o1 [Ex 8, 2-{1-[4-(3,3-Dimethyl-2-oxo-butoxy)-3-methyl-phenyl]-1-ethyl-propyl}-benzooxazole-5-carboxylic acid dimethylamide] | 117 nM | > 1000 nM | –
CCC(CC)(c1ccc(OCC(=O)C(C)(C)C)c(C)c1)c1nc2cc(C(=O)NCC(=O)O)ccc2o1 [Ex 9, [(2-{1-[4-(3,3-Dimethyl-2-oxo-butoxy)-3-methyl-phenyl]-1-ethyl-propyl}-benzooxazole-5-carbonyl)-amino]-acetic acid] | 150 nM | > 1000 nM | –
CCC(CC)(c1ccc(OCC(=O)C(C)(C)C)c(C)c1)c1nc2ccc(C(=O)O)cc2o1 [Ex. 1, 2-{1-[4-(3,3-dimethyl-2-oxo-butoxy)-3-methyl-phenyl]-1-ethyl-propyl}-benzooxazole-6-carboxylic acid] | 1120 nM | – | 376 nM
CCC(CC)(c1ccc(OCC(=O)C(C)(C)C)c(C)c1)c1nc2ccc(C(N)=O)cc2o1 [Ex. 2, 2-{1-[4-(3,3-Dimethyl-2-oxo-butoxy)-3-methyl-phenyl]-1-ethyl-propyl}-benzooxazole-6-carboxylic acid amide] | 73 nM | > 1000 nM | 289 nM
CCC(CC)(c1ccc(OCC(=O)C(C)(C)C)c(C)c1)c1nc2ccc(C(=O)N(C)C)cc2o1 [Ex. 3, 2-{1-[4-(3,3-Dimethyl-2-oxo-butoxy)-3-methyl-phenyl]-1-ethyl-propyl}-benzooxazole-6-carboxylic acid dimethylamide] | 701 nM | – | 1640 nM
CCC(CC)(c1ccc(OCC(=O)C(C)(C)C)c(C)c1)c1nc2ccc(C(=O)NCC(=O)O)cc2o1 [Ex. 4, [(2-{1-[4-(3,3-dimethyl-2-oxo-butoxy)-3-methyl-phenyl]-1-ethyl-propyl}-benzooxazole-6-carbonyl)-amino]-acetic acid] | 700 nM | – | 1170 nM
CCC(CC)(c1ccc(OCC(=O)C(C)(C)C)c(C)c1)c1nc2cc(C(=O)O)ccc2o1 [Ex. 5, 2-{1-[4-(3,3-Dimethyl-2-oxo-butoxy)-3-methyl-phenyl]-1-ethyl-propyl}-benzooxazole-5-carboxylic acid] | 37 nM | > 1000 nM | 8 nM
CCC(CC)(c1ccc(OCC(O)C(C)(C)C)c(C)c1)c1nc2cc(C(=O)O)ccc2o1 (centres unmarked) [Ex. 6, 2-{1-Ethyl-1-[4-(2-hydroxy-3,3-dimethyl-butoxy)-3-methyl-phenyl]-propyl}-benzooxazole-5-carboxylic acid] | 5 nM | 36 nM | –
